Data set [1] relates to Hepatocyte growth factor receptor (Homo sapiens), P08581 [Y1248D]. The data set can be described thus: Inhibition of recombinant human Met Y1248D mutant (974 to end residues) assessed as residual activity at 0.5 uM using KKKGQEEEYVFIE as substrate incubated for 40 mins in presence of [gamma-33P]-ATP by scintillation counting method relative to control.
Data set [2] in a line: Half life in male Sprague-Dawley rat at 2 mg/kg, iv measured up to 24 hrs by LC-MS/MS analysis. To be noted: in vivo. It counts as ADME, organism-based.
Data set [3] has as its target Tyrosine-protein kinase JAK3 (Homo sapiens) (UniProt P52333). The data set can be described thus: Inhibition of human JAK3 (781 to end residues) assessed as residual activity at 0.5 uM using GGEEEEYFELVKKKK as substrate after 40 mins by [gamma-33ATP] radiometric assay relative to control.
The nature of data set [4]: Half life in female Sprague-Dawley rat at 2 mg/kg, iv measured up to 24 hrs by LC-MS/MS analysis. It counts as ADME, organism-based. Particulars: in vivo.
A short description of data set [5]: AUC (0 to t) in male Sprague-Dawley rat at 10 mg/kg, po measured up to 24 hrs by LC-MS/MS analysis. It counts as ADME, organism-based. Set-up: route oral, dose 10 mg/kg, time <=24. Particulars: in vivo.
For data set [6], the target named is Proto-oncogene tyrosine-protein kinase receptor Ret (Homo sapiens) (UniProt P07949). The data set can be described thus: Inhibition of recombinant human Ret (658 to end residues) assessed as residual activity at 0.5 uM using KKKSPGEYVNIEFG as substrate incubated for 40 mins in presence of [gamma33P]ATP by scintillation counting based radiometry assay relative to control.
Sequence of Proto-oncogene tyrosine-protein kinase receptor Ret (Homo sapiens) (P07949 whole entry): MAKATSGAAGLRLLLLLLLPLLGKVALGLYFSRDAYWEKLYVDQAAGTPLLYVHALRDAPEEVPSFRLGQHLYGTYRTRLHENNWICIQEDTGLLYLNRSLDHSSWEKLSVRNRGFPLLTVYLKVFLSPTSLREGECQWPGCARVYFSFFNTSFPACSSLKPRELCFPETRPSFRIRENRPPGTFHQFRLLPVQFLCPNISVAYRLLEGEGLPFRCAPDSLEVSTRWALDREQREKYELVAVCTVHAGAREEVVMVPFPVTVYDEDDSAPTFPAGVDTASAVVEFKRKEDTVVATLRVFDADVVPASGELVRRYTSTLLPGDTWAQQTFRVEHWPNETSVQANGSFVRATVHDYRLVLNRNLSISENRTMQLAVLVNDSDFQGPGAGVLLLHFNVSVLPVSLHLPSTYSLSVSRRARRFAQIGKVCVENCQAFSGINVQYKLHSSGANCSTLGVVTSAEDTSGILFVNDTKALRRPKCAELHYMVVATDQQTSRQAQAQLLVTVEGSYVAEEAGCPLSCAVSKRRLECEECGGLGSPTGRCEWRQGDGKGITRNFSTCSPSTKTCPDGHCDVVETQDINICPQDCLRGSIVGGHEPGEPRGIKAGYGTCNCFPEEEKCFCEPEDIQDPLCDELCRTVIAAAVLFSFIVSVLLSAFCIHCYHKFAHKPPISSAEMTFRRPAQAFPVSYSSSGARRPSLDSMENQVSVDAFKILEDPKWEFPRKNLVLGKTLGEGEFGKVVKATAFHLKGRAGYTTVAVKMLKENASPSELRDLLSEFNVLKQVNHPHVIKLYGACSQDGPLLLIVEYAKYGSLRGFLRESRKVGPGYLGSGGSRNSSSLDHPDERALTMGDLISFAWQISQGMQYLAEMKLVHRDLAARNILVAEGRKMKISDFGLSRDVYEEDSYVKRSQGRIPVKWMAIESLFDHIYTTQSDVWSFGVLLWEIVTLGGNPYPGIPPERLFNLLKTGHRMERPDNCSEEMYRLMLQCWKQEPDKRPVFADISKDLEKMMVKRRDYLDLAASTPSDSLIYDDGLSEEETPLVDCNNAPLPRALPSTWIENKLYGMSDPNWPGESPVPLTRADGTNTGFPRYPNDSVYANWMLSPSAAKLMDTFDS

For data set [7], the system named is BaF3. Kind of data set: Antitumor activity against mouse BaF3 cells transfected with ETV6-NTRK3-G623R mutant xenografted in mouse assessed as tumor growth inhibition at 5 to 20 mg/kg, po administered once daily for 21 days and measured twice weekly. To be noted: dose 5-20 mg/kg, time 21.0 day.
Data set [8] is described as follows: Oral bioavailability in female Sprague-Dawley rat at 10 mg/kg measured up to 24 hrs by LC/MS/MS analysis. It counts as ADME, organism-based. To be noted: in vivo.
Data set [9] deals with Proto-oncogene tyrosine-protein kinase Src (Homo sapiens), P12931 [T341M]. Kind of data set: Inhibition of recombinant full-length human Src T341M mutant assessed as residual activity at 0.5 uM using GGEEEEYFELVKKKK as substrate measured after 40 mins in presence of [gamma33P]ATP by scintillation counting method relative to control.
Data set [10] in a line: Toxicity in mouse xenografted with mouse BaF3 cells transfected with LMNA-NTRK1-G595R mutant assessed as weight loss at 20 mg/kg, po administered once daily for 21 days and measured twice weekly. Particulars: in vivo, 504 h.
Data set [11] relates to Mast/stem cell growth factor receptor Kit (Homo sapiens), P10721 [D816H]. The data set can be described thus: Inhibition of recombinant human C-Kit D816H mutant (544 to end residues) assessed as residual activity at 0.5 uM poly(Glu, Tyr) 4:1 as substrate incubated 40 mins in presence of [gamma-33ATP] by scintillation counting based radiometry assay relative to control.
Sequence of Mast/stem cell growth factor receptor Kit (Homo sapiens), P10721 [D816H] (P10721 whole entry D816H): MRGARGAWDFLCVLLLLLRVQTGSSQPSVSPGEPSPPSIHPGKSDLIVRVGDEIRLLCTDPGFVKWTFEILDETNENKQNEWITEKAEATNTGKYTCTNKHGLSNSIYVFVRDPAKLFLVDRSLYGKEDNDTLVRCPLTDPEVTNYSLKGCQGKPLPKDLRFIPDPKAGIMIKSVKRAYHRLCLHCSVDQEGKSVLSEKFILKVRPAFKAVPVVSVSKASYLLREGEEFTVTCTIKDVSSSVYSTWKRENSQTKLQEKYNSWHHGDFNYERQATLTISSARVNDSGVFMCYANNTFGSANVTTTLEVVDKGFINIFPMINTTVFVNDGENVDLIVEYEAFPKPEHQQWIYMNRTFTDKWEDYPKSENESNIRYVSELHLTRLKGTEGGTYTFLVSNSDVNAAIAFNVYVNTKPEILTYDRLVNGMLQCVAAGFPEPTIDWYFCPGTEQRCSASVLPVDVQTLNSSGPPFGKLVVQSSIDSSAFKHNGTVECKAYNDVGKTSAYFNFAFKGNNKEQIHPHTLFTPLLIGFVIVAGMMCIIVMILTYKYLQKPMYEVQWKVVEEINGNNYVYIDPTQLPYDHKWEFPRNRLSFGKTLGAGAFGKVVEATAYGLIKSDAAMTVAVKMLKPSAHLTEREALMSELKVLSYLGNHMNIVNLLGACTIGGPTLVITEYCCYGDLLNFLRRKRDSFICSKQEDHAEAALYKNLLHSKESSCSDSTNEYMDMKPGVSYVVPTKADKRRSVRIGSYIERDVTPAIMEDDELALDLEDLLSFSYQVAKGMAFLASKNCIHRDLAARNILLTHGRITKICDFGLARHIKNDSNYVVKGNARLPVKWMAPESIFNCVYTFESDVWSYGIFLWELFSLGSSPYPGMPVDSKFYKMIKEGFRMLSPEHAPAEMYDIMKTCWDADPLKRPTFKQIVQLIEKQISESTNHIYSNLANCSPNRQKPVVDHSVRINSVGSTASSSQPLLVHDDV
Data set [12] deals with Mast/stem cell growth factor receptor Kit (Homo sapiens) (UniProt P10721). Kind of data set: Inhibition of recombinant human c-Kit (544 to end residues) assessed as residual activity at 0.5 uM using poly(Glu, Tyr) 4:1 as substrate measured after 40 mins in presence of [gamma33P]ATP by scintillation counting method.
Sequence of Mast/stem cell growth factor receptor Kit (Homo sapiens) (P10721 whole entry): as the sequence (P10721 whole entry D816H) above, with H816D counted along it
The target in data set [13] is High affinity nerve growth factor receptor (Homo sapiens, UniProt P04629). Kind of data set: Inhibition of human TrkA (440 to end residues) assessed as residual activity at 0.5 uM using KKKSPGEYVNIEFG as substrate measured after 40 mins in presence of [gamma33P]ATP by scintillation counting method relative to control.
Sequence of High affinity nerve growth factor receptor (P04629 33-796 limits assumed): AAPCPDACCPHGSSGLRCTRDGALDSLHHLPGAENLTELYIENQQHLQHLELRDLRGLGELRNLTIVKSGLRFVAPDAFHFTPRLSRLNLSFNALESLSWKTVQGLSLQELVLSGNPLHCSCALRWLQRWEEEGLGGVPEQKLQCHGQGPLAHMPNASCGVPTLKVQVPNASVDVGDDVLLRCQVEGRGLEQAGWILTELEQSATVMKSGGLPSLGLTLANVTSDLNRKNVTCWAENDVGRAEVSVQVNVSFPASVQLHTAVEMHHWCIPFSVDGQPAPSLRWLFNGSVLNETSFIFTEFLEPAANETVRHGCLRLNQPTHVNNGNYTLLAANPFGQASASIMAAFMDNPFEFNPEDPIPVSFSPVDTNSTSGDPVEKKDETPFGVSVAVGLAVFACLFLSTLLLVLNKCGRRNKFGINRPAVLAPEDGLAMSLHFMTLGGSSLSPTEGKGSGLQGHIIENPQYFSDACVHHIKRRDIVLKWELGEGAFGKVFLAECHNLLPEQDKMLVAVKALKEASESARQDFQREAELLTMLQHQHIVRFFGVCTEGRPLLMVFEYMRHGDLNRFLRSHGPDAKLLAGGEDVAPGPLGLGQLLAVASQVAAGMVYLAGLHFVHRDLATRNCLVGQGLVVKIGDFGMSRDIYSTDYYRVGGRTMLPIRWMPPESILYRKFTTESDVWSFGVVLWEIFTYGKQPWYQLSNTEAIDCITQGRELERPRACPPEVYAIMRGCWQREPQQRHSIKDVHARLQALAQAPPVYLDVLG
The subject of data set [14] is Mast/stem cell growth factor receptor Kit (Homo sapiens), P10721 [V654A]. Kind of data set: Inhibition of recombinant human C-Kit V654A mutant (544 to end residues) assessed as residual activity at 0.5 uM poly(Glu, Tyr) 4:1 as substrate incubated 40 mins in presence of [gamma-33ATP] by scintillation counting based radiometry assay relative to control.
The test system of data set [15] is BaF3. The data set can be described thus: Antitumor activity against mouse BaF3 cells transfected with ETV6-NTRK3 xenografted in mouse assessed as tumor growth inhibition at 5 to 20 mg/kg, po administered once daily for 21 days and measured twice weekly. To be noted: dose 5-20 mg/kg, time 21.0 day.
Data set [16] has as its system Hepatocyte growth factor receptor (Homo sapiens), P08581 [D1246H]. Kind of data set: Inhibition of recombinant human Met D1246H mutant (974 to end residues) assessed as residual activity at 0.5 uM using KKKGQEEEYVFIE as substrate incubated for 40 mins in presence of [gamma-33P]-ATP by scintillation counting method relative to control.
Data set [17] in a line: C0 in female Sprague-Dawley rat at 2 mg/kg, iv measured up to 24 hrs by LC/MS/MS analysis. It counts as ADME, organism-based. To be noted: in vivo.
Data set [18] has as its target Serine/threonine-protein kinase B-raf (Homo sapiens) (UniProt P15056). Kind of data set: Inhibition of recombinant […] human B-Raf (416 to end residues) assessed as residual activity at 0.5 uM using myelin basic protein substrate incubated for 40 mins in presence of [gamma-33ATP] by scintillation counting based radiometry assay relative to control.
Data set [19] can be described thus: C0 in Sprague-Dawley rat at 3 mg/kg measured up to 24 hrs by LC/MS/MS analysis. It counts as ADME, organism-based. To be noted: in vivo.
Data set [20] is described as follows: cells. Particulars: Homo sapiens, CUTO-3.
Description: Antiproliferative activity against TrK fused human CUTO-3 cells
Data set [21] deals with BaF3. Kind of data set: Antitumor activity against mouse BaF3 cells transfected with LMNA-NTRK1 xenografted in mouse assessed as tumor growth inhibition at 100 mg/kg, po administered once daily for 21 days and measured twice weekly. To be noted: time 21.0 day.
Data set [22] has as its system BaF3. Kind of data set: Antitumor activity against mouse BaF3 cells transfected with ETV6-NTRK3 cells xenografted in mouse assessed as tumor growth inhibition at 100 mg/kg, po administered once daily for 21 days and measured twice weekly. Particulars: time 21.0 day.
A short description of data set [23]: Toxicity in mouse xenografted with mouse BaF3 cells transfected with LMNA-NTRK1-G595R mutant assessed as unkempt appearance at 100 mg/kg, po administered once daily for 21 days and measured twice weekly. Particulars: in vivo, 504 h.
Data set [24] is described as follows: AUC (0 to t) in Sprague-Dawley rat at 10 mg/kg, po measured up to 24 hrs by LC-MS/MS analysis. Set-up: route oral, dose 10 mg/kg, time <=24. It counts as ADME, organism-based. To be noted: in vivo.
The nature of data set [25]: Toxicity in mouse xenografted with mouse BaF3 cells transfected with LMNA-NTRK1 assessed as unkempt appearance at 100 mg/kg, po administered once daily for 21 days and measured twice weekly. To be noted: in vivo, 504 h.
A short description of data set [26]: Toxicity in mouse xenografted with mouse BaF3 cells transfected with LMNA-NTRK1-G595R mutant assessed as weight loss at 100 mg/kg, po administered once daily for 21 days and measured twice weekly. Particulars: in vivo, 504 h.

Structures are written as SMILES. The source made the active and inactive calls. The rule behind the calls is not given here.

What is called half-life is the time in which the quantity being followed falls by half. Higher therefore signals slow loss. Broadly, the AUC(0-t) is the area under the concentration-time curve up to a stated or last time point. What is called bioavailability is dose-corrected exposure relative to a reference, in per cent. A high value points to good availability. By IC50 is commonly meant the concentration that inhibits the measured activity by half. A lower IC50 goes with greater potency in that assay.

Sequence of Serine/threonine-protein kinase B-raf (Homo sapiens) (P15056 whole entry): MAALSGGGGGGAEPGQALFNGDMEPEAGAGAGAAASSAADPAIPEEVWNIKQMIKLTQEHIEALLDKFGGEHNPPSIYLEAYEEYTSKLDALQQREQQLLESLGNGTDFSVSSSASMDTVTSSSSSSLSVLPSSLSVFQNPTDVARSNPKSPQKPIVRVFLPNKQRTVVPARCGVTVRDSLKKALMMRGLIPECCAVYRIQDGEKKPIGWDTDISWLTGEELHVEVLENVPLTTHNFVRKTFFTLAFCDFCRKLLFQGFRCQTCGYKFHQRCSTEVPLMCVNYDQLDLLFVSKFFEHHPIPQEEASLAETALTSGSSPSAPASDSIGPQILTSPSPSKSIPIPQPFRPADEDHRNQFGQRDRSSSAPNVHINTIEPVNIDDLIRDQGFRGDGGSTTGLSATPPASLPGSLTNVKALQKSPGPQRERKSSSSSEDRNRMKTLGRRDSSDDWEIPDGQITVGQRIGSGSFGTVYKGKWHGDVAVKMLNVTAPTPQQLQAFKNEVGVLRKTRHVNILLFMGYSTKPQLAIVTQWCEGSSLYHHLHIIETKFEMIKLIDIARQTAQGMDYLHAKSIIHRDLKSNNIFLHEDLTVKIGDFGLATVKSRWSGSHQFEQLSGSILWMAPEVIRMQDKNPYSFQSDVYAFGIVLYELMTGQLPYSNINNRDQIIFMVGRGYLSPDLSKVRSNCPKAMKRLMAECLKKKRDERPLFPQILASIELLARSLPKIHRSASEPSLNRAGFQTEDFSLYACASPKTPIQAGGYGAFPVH
Sequence of Mast/stem cell growth factor receptor Kit (Homo sapiens), P10721 [V654A] (P10721 whole entry V654A): as the sequence (P10721 whole entry D816H) above, with V654A, H816D counted along it
Sequence of Tyrosine-protein kinase JAK3 (Homo sapiens) (P52333 whole entry): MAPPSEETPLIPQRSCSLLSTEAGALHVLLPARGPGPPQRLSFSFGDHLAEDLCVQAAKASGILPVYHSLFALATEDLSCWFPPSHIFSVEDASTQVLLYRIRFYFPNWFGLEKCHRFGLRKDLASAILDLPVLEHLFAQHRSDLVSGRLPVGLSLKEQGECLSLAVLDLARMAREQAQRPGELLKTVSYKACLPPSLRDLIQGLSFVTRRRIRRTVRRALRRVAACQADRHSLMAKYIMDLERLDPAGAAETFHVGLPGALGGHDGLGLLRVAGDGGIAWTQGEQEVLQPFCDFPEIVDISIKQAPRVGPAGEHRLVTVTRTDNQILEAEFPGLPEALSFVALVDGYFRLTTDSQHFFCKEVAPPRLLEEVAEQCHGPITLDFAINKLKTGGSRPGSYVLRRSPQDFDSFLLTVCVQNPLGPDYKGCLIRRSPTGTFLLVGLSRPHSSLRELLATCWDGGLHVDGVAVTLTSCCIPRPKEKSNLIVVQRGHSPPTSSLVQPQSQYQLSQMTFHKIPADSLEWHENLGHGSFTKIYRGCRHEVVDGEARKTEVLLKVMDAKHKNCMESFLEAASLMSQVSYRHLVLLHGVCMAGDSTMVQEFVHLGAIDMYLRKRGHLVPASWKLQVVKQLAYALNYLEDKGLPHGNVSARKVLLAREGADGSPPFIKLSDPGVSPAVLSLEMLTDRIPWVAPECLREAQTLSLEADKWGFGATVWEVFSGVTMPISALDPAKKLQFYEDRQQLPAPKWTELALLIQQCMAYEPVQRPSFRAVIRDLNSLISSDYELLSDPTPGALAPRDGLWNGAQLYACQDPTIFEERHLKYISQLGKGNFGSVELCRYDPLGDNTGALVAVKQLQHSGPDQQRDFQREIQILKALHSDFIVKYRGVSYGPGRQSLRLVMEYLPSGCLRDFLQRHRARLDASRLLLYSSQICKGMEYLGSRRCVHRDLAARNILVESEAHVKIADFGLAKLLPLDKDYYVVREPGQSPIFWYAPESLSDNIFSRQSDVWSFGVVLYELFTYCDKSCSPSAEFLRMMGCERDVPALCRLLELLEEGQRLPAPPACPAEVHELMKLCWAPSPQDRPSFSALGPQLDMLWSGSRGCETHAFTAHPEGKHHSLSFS

`O=C1NC2(CC2)COc2ncc(F)cc2[C@H]2COCCN2c2ccn3ncc1c3n2`: the Activity is 96% in data set [1]; 94% in data set [3]; 64% in data set [6]; 55% in data set [9]; “Toxic” in [10]; 96% in data set [11]. Moreover, the Activity in [12] came out at 100%; in [13], 2%; in data set [14], 105%; in [16], 91%; in data set [18] it was 111%. Further, the figures for the half-life in data set [2] and in data set [4] were 0.872 h and 2.21 h, respectively. In data set [5], the exposure AUC(0-t) at 24 h is 11.7 µM·h. The result in [7] and in [15] was Active. This molecule had a bioavailability in [8] of 61.9%. The C0 at 24 h in data set [17] was 3.51 µM.
In [19], `C[C@@H]1CCc2ncc(F)cc2[C@H]2CCCN2c2ccn3ncc(c3n2)C(=O)N1` [SELITRECTINIB] showed a C0 of 23.779 µM. In data set [20], the IC50 was no more than 5 nM. Also, the outcome in [21] and in data set [22] was Active. The Activity result in data set [23], in data set [25] and in data set [26] was “Toxic” throughout. This molecule also returned an AUC(0-t) at 24 h in data set [24] of 27.3 µM·h.

The record behind these values is ChEMBL document CHEMBL5034019, “Discovery of the Next-Generation Pan-TRK Kinase Inhibitors for the Treatment of Cancer” (J Med Chem, 2021).
